With COc1cc2ncc(C#N)c(Nc3ccc(O)c(Cl)c3)c2cc1OC the melting point was 230 to 232 °C.
OCC(O)COc1ccccc1OCc1ccccc1 (stereo unspecified) showed a melting point of 81 to 82.5 °C.
With NS(=O)(=O)c1cnc(-c2cn(-c3cc(-c4ccc(C(F)(F)F)cc4)cc(C(F)(F)F)n3)cn2)s1 the melting point was greater than 250 °C.
In the case of Cc1nc[nH]c1CSCCNC(=O)NCCSCc1[nH]cnc1C, the melting point is reported as 225 to 228 °C.
CC(=O)NC[C@H]1CN(c2ccc(N3CCC(n4nnc(N5CCN(C#N)CC5)n4)CC3)c(F)c2)C(=O)O1 showed a melting point of 208 to 210 °C.
In the case of C#CCNC1=NS(=O)(=O)N=C1NCCSCc1nc[nH]c1C, the melting point is reported as 82 to 103 °C.
Work on CCOC(=O)c1cn(C)c2cnc3cc(F)c(N4CCC[C@H]4CNc4ccccc4)cc3c2c1=O yielded a melting point of 170 °C.
COc1ccc(CC2CCC3=C(C2)CC(CO)C(=O)N3)cc1 (stereo unspecified) gave a melting point of 165 to 168 °C.
CN1C(=O)c2cscc2Nc2ccccc21 gave a melting point of 195 to 198 °C.
In the case of CCCCCCCCCCCC(O)CC1COC1=O (stereo unspecified), the melting point is reported as 44.5 to 46 °C.
COc1cc(COc2nn(-c3ccccc3)cc2C=O)ccc1OCc1cn(-c2ccccn2)nc1C gave a melting point of 179 to 180 °C.
Compound COC(=O)/C=C/c1ccc2nn(C)c(C)c2c1C(=O)OC has a melting point of 133 to 135 °C.
O=C(Cc1ccccc1C(=O)O)Nc1cccc(/C=C/c2nc(C3CCCCCCC3)cs2)c1 showed a melting point of 180 to 182 °C.
For CC(C(=O)O)c1ccc2nc(-c3ccccc3)oc2c1 (stereo unspecified), the melting point was 132 °C.
Compound COc1cccc2c1CN(c1c(F)c(F)c3c(=O)c(C(=O)O)cn(C4CC4)c3c1F)C2 has a melting point greater than 280 °C.
With O=C(Nc1cccc([N+](=O)[O-])c1)NC1C(=O)N(CC23CC4CC(CC(C4)C2)C3)c2ccccc2N(c2ccccc2)C1=O (stereo unspecified) the melting point was 213 to 215 °C.
Work on O=C(O)CCCC(=O)c1cc2c(=O)c3ccccc3ccc2s1 yielded a melting point of 149 to 151 °C.
CCCCCCCCOc1cc(OC)ccc1O gave a melting point of 36 to 38 °C.
O=C(NC/C=C\COc1cc(CN2CCCCC2)ccn1)c1cn[nH]c1 gave a melting point of 121 to 123 °C.
For COc1ccc2oc3cccc(NCCN4CCCC4)c3c(=O)c2c1, the melting point was 92 to 93 °C.
In the case of CCCCCCCCC1(CCCCCCCC)c2cc(Cl)ccc2-c2ccc(Cl)cc21, the melting point is reported as 50 to 51 °C.
Work on Cc1nc(N2C(=O)N(Cc3ccc(F)cc3)C[C@@H]2C)sc1C(N)=O yielded a melting point of 197 to 198 °C.
With C#CCN1CSCC1=O the melting point was 29 to 31 °C.
Cn1nc(-c2ccccc2)cc1Cl gave a melting point of 61 to 62 °C.
In the case of COc1cc2ncnc(N3CCN(C(=O)NCc4ccc(F)cc4)CC3)c2cc1OC, the melting point is reported as 200 to 201 °C.
COc1ccc2oc(N)c(C#N)c(=O)c2c1 gave a melting point of 320 °C.
With Nc1ccc(S(=O)(=O)Nc2nnc(S(N)(=O)=O)s2)cc1 the melting point was 241 to 242 °C.
O=C(c1cn(Cc2ccccc2Cl)nn1)N1CCCCC1 gave a melting point of 141 to 142 °C.
In the case of COC(=O)c1c(-c2ccccc2)nc2c(c1N)c1c(n2Cc2ccc(OC)cc2)CCCC1, the melting point is reported as 192 to 194 °C.
Compound COCCONS(=O)(=O)c1ccccc1 has a melting point of 110 to 112 °C.
CNC(=O)C1CN(C(=O)/C=C/C2=C(C)CCCC2(C)C)CCN1C(N)=O (stereo unspecified) showed a melting point of 100 to 112 °C.
Work on COc1ccc2c(c1Br)CCC1C(=O)NC(=O)C21 (stereo unspecified) yielded a melting point of 243 to 245 °C.
COc1cc(OC)c2c(=O)[nH]c(-c3ccc(OCCNC(C)C)c(-c4ccccc4S(C)(=O)=O)n3)nc2c1 showed a melting point of 178 to 180 °C.
In the case of O=c1[nH]c2ncc(-c3ccc(O)cc3)nc2n1CC1CCCO1 (stereo unspecified), the melting point is reported as 256 to 258 °C.
COc1nc(C(=O)O)ccc1C#N showed a melting point of 235 to 237 °C.
NS(=O)(=O)c1cc(C(=O)O)cc(SCc2ccco2)c1Oc1ccccc1 showed a melting point of 214 to 216 °C.
CC(C)(C)OC(=O)c1ncn2c1[C@@H]1CCCN1C(=O)c1c(Br)cccc1-2 gave a melting point of 206 to 208 °C.
Work on O=Cc1cn([C@H]2CCc3c(F)cc(F)cc3C2)c(=S)[nH]1 yielded a melting point greater than 285 °C.
CCC1CCCCn2c1nc(-c1ccncn1)cc2=O (racemic) showed a melting point of 128 to 130 °C.
Compound CC(C)(C)c1ccc(-c2nc(COc3cccc4cc(NS(=O)(=O)C(F)(F)F)ccc34)co2)cc1 has a melting point of 165 to 167 °C.
O=C1OCN(C(=O)OCc2ccccc2)[C@H]1CCCl gave a melting point of 75 to 77 °C.
